Laboratory results published in US4376116A, “Polyamine biosynthesis inhibitors” (Research Corporation, priority 1981, dated 1983).
Read-outs that look alike come from different tables or passages of the source.

Tests used:
[1] = target: T1, rat prostate spermidine synthase (Rattus norvegicus, UniProt Q99MI5); test: Inhibition of purified spermidine synthase from rat ventral prostate; format: biochemical
T1 construct: purified spermidine synthase obtained from the rat ventral prostate; from tissue; host or cells: rat ventral prostate
T1 sequence (Q99MI5 1-302): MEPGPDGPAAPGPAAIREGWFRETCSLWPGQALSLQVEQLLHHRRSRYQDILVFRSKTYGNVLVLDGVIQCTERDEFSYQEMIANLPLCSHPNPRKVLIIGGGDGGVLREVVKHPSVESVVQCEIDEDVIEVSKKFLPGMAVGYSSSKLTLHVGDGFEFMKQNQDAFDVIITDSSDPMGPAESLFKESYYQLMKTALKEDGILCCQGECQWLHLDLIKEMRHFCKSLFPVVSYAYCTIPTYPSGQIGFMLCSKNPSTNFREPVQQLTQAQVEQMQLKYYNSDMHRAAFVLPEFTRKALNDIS

[2] = target: T2, rat prostate spermine synthase (Rattus norvegicus, UniProt Q3MIE9); test: Inhibition of rat prostate spermine synthase; format: biochemical; details: for inhibition at 100 µM: second preparation of spermine synthase
T2 construct: with respect to rat prostate spermine synthase; from tissue; host or cells: rat prostate
T2 sequence (Q3MIE9 1-366): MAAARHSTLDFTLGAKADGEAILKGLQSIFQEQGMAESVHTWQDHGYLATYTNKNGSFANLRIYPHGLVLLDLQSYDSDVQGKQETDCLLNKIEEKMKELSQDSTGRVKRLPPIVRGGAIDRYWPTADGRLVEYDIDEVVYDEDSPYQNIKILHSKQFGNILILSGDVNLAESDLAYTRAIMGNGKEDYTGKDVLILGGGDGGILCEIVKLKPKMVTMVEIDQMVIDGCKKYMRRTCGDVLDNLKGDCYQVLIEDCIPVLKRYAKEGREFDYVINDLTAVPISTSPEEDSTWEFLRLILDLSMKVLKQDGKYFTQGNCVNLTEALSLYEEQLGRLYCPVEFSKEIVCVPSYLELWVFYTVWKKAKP
Text: This enzyme catalyzes the synthesis of spermine in the reaction of spermidine with decarboxylated S-adenosylmethionine, presumably by direct nucleophilic attack as shown by the above transition state wherein R is aminopropyl.

[3] = target: T3, methylthioadenosine phosphorylase (Rattus norvegicus, UniProt A0A0G2K583); test: Inhibition of methylthioadenosine (MTA) phosphorylase; format: biochemical; details: for % Inhibition MTA Phosphorylase: methyl thioadenosine 100 μm
T3 construct: In the tests involving MTA phosphorylase, the procedure described by H. Hibasami was employed; from tissue
T3 sequence (A0A0G2K583 1-283): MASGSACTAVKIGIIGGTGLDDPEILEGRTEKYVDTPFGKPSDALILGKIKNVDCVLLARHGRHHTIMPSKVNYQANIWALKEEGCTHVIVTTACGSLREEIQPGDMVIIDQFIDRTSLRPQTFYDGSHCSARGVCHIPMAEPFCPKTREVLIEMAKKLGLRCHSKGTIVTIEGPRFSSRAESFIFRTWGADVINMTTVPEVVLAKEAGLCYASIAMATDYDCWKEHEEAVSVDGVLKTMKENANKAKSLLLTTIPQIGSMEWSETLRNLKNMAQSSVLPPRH
Text: However, they can be readily prepared by coupling 5'-deoxy-5'-chloroadenosine with an appropriate thiol compound. […] (In the tests involving MTA phosphorylase, the procedure described by H. Hibasami was employed at a methyl thioadenosine concentration of 100 μm.)

[4] = Solubility limiting the concentration range; format: physicochemical; details: concentration range limited
aminopropyl transferases = details: another study; cited from earlier work
SAM-dependent methylases = details: cited from earlier work
[5] = at concentrations as high as 250 μM

NCCCCCC(CCN)SC[C@H]1O[C@@H](n2cnc3c(N)ncnc32)[C@H](O)[C@@H]1O (stereo partly drawn) [Compound Ic, S-Adenosyl-1,8-diamino-3-thiooctane]
inhibition of spermidine synthase (in words) [1]: more potent inhibitor of spermidine synthase than the fully charged methyl sulfonium salt IIc | % Inhibition Spermidine Synthase ([1]; Concentration 10, dcSAM 21 μm): 97% | % Inhibition Spermidine Synthase ([1]; Concentration 25, dcSAM 21 μm): 97% | % Inhibition Spermidine Synthase ([1]; Concentration 50, dcSAM 21 μm): 99% | % Inhibition Spermidine Synthase ([1]; Concentration 100, dcSAM 21 μm): 99% | inhibitory specificity against spermidine synthase (in words) ([1]; versus spermine synthase): unusual inhibitory specificity | inhibition of spermine synthase (in words) [2]: almost no inhibitory activity | % Inhibition Spermine Synthase ([2]; Concentration 25): 10% | effect on methylthioadenosine phosphorylase (in words) [3]: neither compound Ic nor IIc has any significant effect | % Inhibition MTA Phosphorylase ([3]; Concentration 10): 3% | % Inhibition MTA Phosphorylase ([3]; Concentration 25): 8% | % Inhibition MTA Phosphorylase ([3]; Concentration 100): 10%

NCCCCCC(O)CCN (stereo not drawn) [1,8-diamine-3-octanol, reference compound]
inhibition of spermidine synthase (in words) [1, 5]: completely inactive | inhibition of spermine synthase (in words) [2, 5]: completely inactive

C[S+](C[C@H]1O[C@@H](n2cnc3c(N)ncnc32)[C@H](O)[C@@H]1O)C(CCN)CCCCCN (stereo partly drawn) [IIc, S-Adenosyl-1,8-diamino-3-(methylthio)octane]
% Inhibition Spermidine Synthase ([1]; Concentration 10, dcSAM 21 μm): 32% | % Inhibition Spermidine Synthase ([1]; Concentration 50, dcSAM 21 μm): 84% | % Inhibition Spermidine Synthase ([1]; Concentration 100, dcSAM 21 μm): 92% | % Inhibition Spermidine Synthase ([1]; Concentration 250, dcSAM 21 μm): 96% | inhibition of spermine synthase (in words) [2]: only modest inhibition | % Inhibition Spermine Synthase ([2]; Concentration 10): 7% | % Inhibition Spermine Synthase ([2]; Concentration 50): 40% | % Inhibition Spermine Synthase ([2]; Concentration 100): 59% | % Inhibition Spermine Synthase ([2]; Concentration 250): 86% | inhibition at 100 µM [2]: 28% | effect on methylthioadenosine phosphorylase (in words) [3]: neither compound Ic nor IIc has any significant effect | % Inhibition MTA Phosphorylase ([3]; Concentration 250): 25%

CCCCCC(CC)[S+](C)C[C@H]1O[C@@H](n2cnc3c(N)ncnc32)[C@H](O)[C@@H]1O (stereo partly drawn) [Compound IIb, S-Adenosyl-3-methylthiooctane]
inhibition of spermidine synthase (in words) [1]: do not at all inhibit | % Inhibition Spermidine Synthase ([1]; Concentration 50, dcSAM 21 μm): 7% | % Inhibition Spermidine Synthase ([1]; Concentration 100, dcSAM 21 μm): 14% | % Inhibition Spermidine Synthase ([1]; Concentration 250, dcSAM 21 μm): 44% | inhibition of spermine synthase (in words) [2]: only modest inhibition | % Inhibition Spermine Synthase ([2]; Concentration 50): 35% | % Inhibition Spermine Synthase ([2]; Concentration 100): 56% | % Inhibition Spermine Synthase ([2]; Concentration 250): 75% | inhibition at 100 µM [2]: 19% | % Inhibition MTA Phosphorylase ([3]; Concentration 250): 21%

C[S+](C)C[C@H]1O[C@@H](n2cnc3c(N)ncnc32)[C@H](O)[C@@H]1O.[O-][Cl+3]([O-])([O-])[O-] [IIa, Dimethyl-(5'-adenosyl)sulfonium perchlorate]
% Inhibition Spermidine Synthase ([1]; Concentration 50, dcSAM 21 μm): 0% | % Inhibition Spermidine Synthase ([1]; Concentration 250, dcSAM 21 μm): 6% | inhibition of spermine synthase (in words) [2]: shows inhibition of spermine synthase | % Inhibition Spermine Synthase ([2]; Concentration 50): 68% | % Inhibition Spermine Synthase ([2]; Concentration 250): 82% | % Inhibition MTA Phosphorylase ([3]; Concentration 250): 30%

CCCCCC(CC)SC[C@H]1O[C@@H](n2cnc3c(N)ncnc32)[C@H](O)[C@@H]1O (stereo partly drawn) [Compound Ib, S-adenosyl-3-thiooctane]
inhibition of spermidine synthase (in words) [1]: do not at all inhibit | % Inhibition Spermidine Synthase ([1]; Concentration 25, dcSAM 21 μm): 0% | % Inhibition Spermidine Synthase ([1]; Concentration 100, dcSAM 21 μm): 0% | inhibition of spermine synthase (in words) [2]: almost no inhibitory activity | % Inhibition Spermine Synthase ([2]; Concentration 25): 11% | % Inhibition Spermine Synthase ([2]; Concentration 100): 22% | % Inhibition MTA Phosphorylase ([3]; Concentration 100): 25% | solubility (in words) [4]: poor solubility

CSC[C@H]1O[C@@H](n2cnc3c(N)ncnc32)[C@H](O)[C@@H]1O [Ia, 5'-methylthioadenosine]
inhibition of spermidine synthase (in words) [1]: inhibitor of both spermidine synthase and spermine synthase | % Inhibition Spermidine Synthase ([1]; Concentration 50, dcSAM 42 μM): 61% | % Inhibition Spermidine Synthase ([1]; Concentration 100, dcSAM 42 μM): 82% | inhibition of spermine synthase (in words) [2]: inhibitor of both spermidine synthase and spermine synthase | % Inhibition Spermine Synthase ([2]; Concentration 50, dcSAM 42 μM): 80% | % Inhibition Spermine Synthase ([2]; Concentration 100, dcSAM 42 μM): 98% | MTA Phosphorylase (substrate, in words) [3]: Substrate | inhibition of aminopropyl transferases (in words) (aminopropyl transferases): non-specific inhibition

Nc1ncnc2c1ncn2[C@@H]1O[C@H](CSCC[C@H](N)C(=O)O)[C@@H](O)[C@H]1O [S-adenosyl-L-homocysteine]
inhibition of SAM-dependent methylases (in words) (SAM-dependent methylases; another study): non-specific inhibition | Ki versus Km of S-adenosyl-L-methionine (in words) (SAM-dependent methylases; many methylases, Cantoni et al): considerably less than the Km value for the corresponding sulfonium substrate
